# According to patent US10238670B2, “9-aminomethyl minocycline compounds and methods of use thereof in urinary tract infection (UTI) treatment” (Paratek Pharmaceuticals, Inc., priority 2016, dated 2019):
# Read-outs that look alike come from different tables or passages of the source.
# Legend:
# Assay in all cases: In vitro MIC, 2010 surveillance isolates
# E. coli ESBL− = type: cell-based, Escherichia coli; details: for Cumulative % Inhibition at MIC: N=3376
# K. pneumoniae ESBL− = type: cell-based, Klebsiella pneumoniae; details: for Cumulative % Inhibition at MIC: N=1381
# K. pneumoniae ESBL+ = type: cell-based, Klebsiella pneumoniae; details: for Cumulative % Inhibition at MIC: N=592
# K. oxytoca = type: cell-based; details: for Cumulative % Inhibition at MIC: N=377
# E. cloacae CeftazS = type: cell-based; details: for Cumulative % Inhibition at MIC: N=550
# E. cloacae CeftazR = type: cell-based; details: for Cumulative % Inhibition at MIC: N=254
structure (smiles),measurement,setting,value
"CN(C)c1cc(CNCC(C)(C)C)c(O)c2c1C[C@H]1C[C@H]3[C@H](N(C)C)C(O)=C(C(N)=O)C(=O)[C@@]3(O)C(O)=C1C2=O [Compound 1, 9-[(2,2-dimethyl-propylamino)-methyl]-minocycline]",MIC90,"E. coli ESBL−; Asia/Pac, N=282",2 µg/mL
same,MIC90,"E. coli ESBL−; Escherichia coli, ESBL-negative E. coli, read-out: MIC90",2 µg/mL
same,MIC90,"E. coli ESBL−; Europe, N=1533",2 µg/mL
same,MIC90,"E. coli ESBL−; L. Amer, N=389",2 µg/mL
same,Cumulative % Inhibition at MIC,E. coli ESBL−; MIC 1 μg/ml,84.2%
same,Cumulative % Inhibition at MIC,E. coli ESBL−; MIC 2 μg/ml,95.9%
same,Cumulative % Inhibition at MIC,E. coli ESBL−; MIC 4 μg/ml,99.3%
same,Cumulative % Inhibition at MIC,E. coli ESBL−; MIC 8 μg/ml,99.9%
same,Cumulative % Inhibition at MIC,E. coli ESBL−; MIC 16 μg/ml,100%
same,Cumulative % Inhibition at MIC,"E. coli ESBL−; MIC ≤0.5 μg/ml, listed as head image P00005",54.2%
same,Cumulative % Inhibition at MIC,E. coli ESBL−; MIC ≥32 μg/ml,100%
same,MIC90,"E. coli ESBL−; N America, N=1172",2 µg/mL
same,MIC90,"K. pneumoniae ESBL−; Asia/Pac, N=189",4 µg/mL
same,MIC90,"K. pneumoniae ESBL−; Europe, N=361",4 µg/mL
same,MIC90,"K. pneumoniae ESBL−; L. Amer, N=160",4 µg/mL
same,Cumulative % Inhibition at MIC,K. pneumoniae ESBL−; MIC 1 μg/ml,29.1%
same,Cumulative % Inhibition at MIC,K. pneumoniae ESBL−; MIC 2 μg/ml,79.9%
same,Cumulative % Inhibition at MIC,K. pneumoniae ESBL−; MIC 4 μg/ml,92.1%
same,Cumulative % Inhibition at MIC,K. pneumoniae ESBL−; MIC 8 μg/ml,95.6%
same,Cumulative % Inhibition at MIC,K. pneumoniae ESBL−; MIC 16 μg/ml,98.3%
same,Cumulative % Inhibition at MIC,"K. pneumoniae ESBL−; MIC ≤0.5 μg/ml, listed as head image P00009",2.4%
same,Cumulative % Inhibition at MIC,K. pneumoniae ESBL−; MIC ≥32 μg/ml,100%
same,MIC90,"K. pneumoniae ESBL−; N America, N=671",4 µg/mL
same,MIC90,"K. pneumoniae ESBL+; Asia/Pac, N=124",16 µg/mL
same,MIC90,"K. pneumoniae ESBL+; Europe, N=151",8 µg/mL
same,MIC90,"K. pneumoniae ESBL+; L. Amer, N=209",16 µg/mL
same,Cumulative % Inhibition at MIC,K. pneumoniae ESBL+; MIC 1 μg/ml,19.3%
same,Cumulative % Inhibition at MIC,K. pneumoniae ESBL+; MIC 2 μg/ml,56.8%
same,Cumulative % Inhibition at MIC,K. pneumoniae ESBL+; MIC 4 μg/ml,79.6%
same,Cumulative % Inhibition at MIC,K. pneumoniae ESBL+; MIC 8 μg/ml,90.2%
same,Cumulative % Inhibition at MIC,K. pneumoniae ESBL+; MIC 16 μg/ml,94.8%
same,Cumulative % Inhibition at MIC,"K. pneumoniae ESBL+; MIC ≤0.5 μg/ml, listed as head image P00010",1.7%
same,Cumulative % Inhibition at MIC,K. pneumoniae ESBL+; MIC ≥32 μg/ml,100%
same,MIC90,"K. pneumoniae ESBL+; N America, N=108",16 µg/mL
same,MIC90,"K. oxytoca; Asia/Pac, N=17",2 µg/mL
same,MIC90,"K. oxytoca; Europe, N=158",2 µg/mL
same,MIC90,"K. oxytoca; L. Amer, N=25",4 µg/mL
same,Cumulative % Inhibition at MIC,K. oxytoca; MIC 1 μg/ml,57.6%
same,Cumulative % Inhibition at MIC,K. oxytoca; MIC 2 μg/ml,89.4%
same,Cumulative % Inhibition at MIC,K. oxytoca; MIC 4 μg/ml,95.2%
same,Cumulative % Inhibition at MIC,K. oxytoca; MIC 8 μg/ml,98.7%
same,Cumulative % Inhibition at MIC,K. oxytoca; MIC 16 μg/ml,99.7%
same,Cumulative % Inhibition at MIC,"K. oxytoca; MIC ≤0.5 μg/ml, listed as head image P00013",2.1%
same,Cumulative % Inhibition at MIC,K. oxytoca; MIC ≥32 μg/ml,100%
same,MIC90,"K. oxytoca; N America, N=177",4 µg/mL
same,MIC90,"E. cloacae CeftazS; Asia/Pac, N=100",4 µg/mL
same,MIC90,"E. cloacae CeftazS; Europe, N=183",4 µg/mL
same,MIC90,"E. cloacae CeftazS; L. Amer, N=57",8 µg/mL
same,Cumulative % Inhibition at MIC,E. cloacae CeftazS; MIC 1 μg/ml,15.3%
same,Cumulative % Inhibition at MIC,E. cloacae CeftazS; MIC 2 μg/ml,70.5%
same,Cumulative % Inhibition at MIC,E. cloacae CeftazS; MIC 4 μg/ml,93.3%
same,Cumulative % Inhibition at MIC,E. cloacae CeftazS; MIC 8 μg/ml,95.6%
same,Cumulative % Inhibition at MIC,E. cloacae CeftazS; MIC 16 μg/ml,97.8%
same,Cumulative % Inhibition at MIC,"E. cloacae CeftazS; MIC ≤0.5 μg/ml, listed as head image P00014",0.5%
same,Cumulative % Inhibition at MIC,E. cloacae CeftazS; MIC ≥32 μg/ml,100%
same,MIC90,"E. cloacae CeftazS; N America, N=210",4 µg/mL
same,MIC90,"E. cloacae CeftazR; Asia/Pac, N=63",8 µg/mL
same,MIC90,"E. cloacae CeftazR; Europe, N=72",8 µg/mL
same,MIC90,"E. cloacae CeftazR; L. Amer, N=42",4 µg/mL
same,Cumulative % Inhibition at MIC,E. cloacae CeftazR; MIC 1 μg/ml,7.9%
same,Cumulative % Inhibition at MIC,E. cloacae CeftazR; MIC 2 μg/ml,54.3%
same,Cumulative % Inhibition at MIC,E. cloacae CeftazR; MIC 4 μg/ml,81.9%
same,Cumulative % Inhibition at MIC,E. cloacae CeftazR; MIC 8 μg/ml,90.2%
same,Cumulative % Inhibition at MIC,E. cloacae CeftazR; MIC 16 μg/ml,94.1%
same,Cumulative % Inhibition at MIC,"E. cloacae CeftazR; MIC ≤0.5 μg/ml, listed as head image P00015",0.4%
same,Cumulative % Inhibition at MIC,E. cloacae CeftazR; MIC ≥32 μg/ml,100%
